According to patent US11267825B2 (AICURIS GMBH & CO. KG, priority 2017, dated 2022):
pEC50, pIC50: −log10 of the molar value.

Key:
HBV = assay: Determination of HBV DNA from the supernatants of HepAD38 cells (anti-HBV activity); format: cell-based, hepatitis B virus; settings: Hepatitis B virus, 144 h; HBV DNA in HepAD38 supernatant at day 6; read-out: Cell Activity (EC50)
Summary of the method: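 HepAD38 cells (60,000/well) were treated with half-log compound dilutions in tetracycline-free medium to induce HBV production. On day 6, HBV DNA was purified from filtered supernatant and quantified by real-time PCR against plasmid standards. EC50 values came from non-linear regression of relative copy numbers, typically from three experiments in triplicate.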

HBV core protein = HBV core protein (UniProt P03146); format: biochemical; settings: read-out: Assembly Activity (IC50); BODIPY-FL labelled core protein, assembly started with NaCl, read after 6 min
HBV core protein, sequence (P03146 whole entry, looked up): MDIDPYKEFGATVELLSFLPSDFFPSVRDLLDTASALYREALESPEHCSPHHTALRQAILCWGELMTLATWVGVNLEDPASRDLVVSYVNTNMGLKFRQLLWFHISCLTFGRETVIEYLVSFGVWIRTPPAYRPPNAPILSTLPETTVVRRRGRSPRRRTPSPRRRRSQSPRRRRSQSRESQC
Summary of the method: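 Fluorescence-quenching assembly assay using E. coli-expressed core protein 1–149 plus Cys150, labelled with BODIPY-FL maleimide, at 1.0–2.0 μM in 50 mM HEPES pH 7.5, 0.5% DMSO. Assembly started with NaCl to […]; fluorescence (ex 477/em 525 nm) read after 6 min. EC50 by non-linear regression, 8-point 0.5-log dilutions.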

SMILES: Nc1nc2c(s1)CN(C(=O)c1cc3ccc(C(F)(F)F)cc3[nH]1)CC2 [Example 199, 5-[6-(trifluoromethyl)-1H-indole-2-carbonyl]-4H,5H,6H,7H-[1,3]thiazolo[5,4-c]pyridin-2-amine]
- pEC50 (HBV): > 6.00
- pIC50 (HBV core protein): > 5.30

SMILES: O=C(c1cc2ccccc2[nH]1)N1CCc2ncsc2C1 [Example 200, 2-{4H,5H,6H,7H-[1,3]thiazolo[5,4-c]pyridine-5-carbonyl}-1H-indole]
- pEC50 (HBV): 5.00 to 6.00
- pIC50 (HBV core protein): > 5.30

SMILES: NC(=O)c1nc2c(s1)CN(C(=O)c1cc3ccccc3[nH]1)CC2 [Example 201, 5-(1H-indole-2-carbonyl)-4H,5H,6H,7H-[1,3]thiazolo[5,4-c]pyridine-2-carboxamide]
- pEC50 (HBV): 5.00 to 6.00
- pIC50 (HBV core protein): > 4.00

SMILES: O=C(c1cc2ccccc2[nH]1)N1CCc2nc(-c3ncccn3)sc2C1 [Example 202, 2-[2-(pyrimidin-2-yl)-4H,5H,6H,7H-[1,3]thiazolo[5,4-c]pyridine-5-carbonyl]-1H-indole]
- pEC50 (HBV): 5.00 to 6.00
- pIC50 (HBV core protein): 5.00 to 5.30

SMILES: N#Cc1nc2c(s1)CN(C(=O)c1cc3ccccc3[nH]1)CC2 [Example 203, 5-(1H-indole-2-carbonyl)-4H,5H,6H,7H-[1,3]thiazolo[5,4-c]pyridine-2-carbonitrile]
- pEC50 (HBV): > 4.00
- pIC50 (HBV core protein): > 4.00

SMILES: CN(C)c1nc2c(s1)CN(C(=O)c1cc3ccccc3[nH]1)CC2 [Example 204, 5-(1H-indole-2-carbonyl)-N,N-dimethyl-4H,5H,6H,7H-[1,3]thiazolo[5,4-c]pyridin-2-amine]
- pEC50 (HBV): 5.00 to 6.00
- pIC50 (HBV core protein): > 4.00

SMILES: CC1(C)OCC(CNc2nc3c(s2)CN(C(=O)c2cc4ccccc4[nH]2)CC3)O1 (centres unmarked) [Example 205, N-[(2,2-dimethyl-1,3-dioxolan-4-yl)methyl]-5-(1H-indole-2-carbonyl)-4H,5H,6H,7H-[1,3]thiazolo[5,4-c]pyridin-2-amine]
- pEC50 (HBV): > 6.00
- pIC50 (HBV core protein): 5.00 to 5.30

SMILES: O=C(c1cc2ccccc2[nH]1)N1CCc2nc(NC3CCOCC3)sc2C1 [Example 206, 5-(1H-indole-2-carbonyl)-N-(oxan-4-yl)-4H,5H,6H,7H-[1,3]thiazolo[5,4-c]pyridin-2-amine]
- pEC50 (HBV): > 6.00
- pIC50 (HBV core protein): > 5.30

SMILES: O=C(c1cc2ccccc2[nH]1)N1CCc2nc(NCC(O)CO)sc2C1 (centres unmarked) [Example 208, 3-{[5-(1H-indole-2-carbonyl)-4H,5H,6H,7H-[1,3]thiazolo[5,4-c]pyridin-2-yl]amino}propane-1,2-diol]
- pEC50 (HBV): > 6.00
- pIC50 (HBV core protein): > 5.30

SMILES: CN(C)c1nc2c(s1)CN(C(=O)c1cc3c(Cl)cc(F)cc3[nH]1)CC2 [Example 209, 5-(4-chloro-6-fluoro-1H-indole-2-carbonyl)-N,N-dimethyl-4H,5H,6H,7H-[1,3]thiazolo[5,4-c]pyridin-2-amine]
- pEC50 (HBV): 5.00 to 6.00
- pIC50 (HBV core protein): 5.00 to 5.30

SMILES: Nc1nc2c(s1)CN(C(=O)c1cc3c(Cl)cccc3[nH]1)CC2 [Example 210, 5-(4-chloro-1H-indole-2-carbonyl)-4H,5H,6H,7H-[1,3]thiazolo[5,4-c]pyridin-2-amine]
- pEC50 (HBV): > 6.00
- pIC50 (HBV core protein): > 5.30

SMILES: Cc1nc2c(s1)CN(C(=O)c1cc3c(Cl)cccc3[nH]1)CC2 [Example 211, 4-chloro-2-{2-methyl-4H,5H,6H,7H-[1,3]thiazolo[5,4-c]pyridine-5-carbonyl}-1H-indole]
- pEC50 (HBV): > 6.00
- pIC50 (HBV core protein): > 5.30

SMILES: CCC(C)(CO)CNc1nc2c(s1)CN(C(=O)c1cc3ccccc3[nH]1)CC2 (centres unmarked) [Example 216, 2-({[5-(1H-indole-2-carbonyl)-4H,5H,6H,7H-[1,3]thiazolo[5,4-c]pyridin-2-yl]amino}methyl)-2-methylbutan-1-ol]
- pEC50 (HBV): > 6.00
- pIC50 (HBV core protein): 5.00 to 5.30

SMILES: CC(CO)CNc1nc2c(s1)CN(C(=O)c1cc3ccccc3[nH]1)CC2 (centres unmarked) [Example 217, 3-{[5-(1H-indole-2-carbonyl)-4H,5H,6H,7H-[1,3]thiazolo[5,4-c]pyridin-2-yl]amino}-2-methylpropan-1-ol]
- pEC50 (HBV): > 6.00
- pIC50 (HBV core protein): > 5.30

SMILES: O=C(c1cc2c(F)cc(F)cc2[nH]1)N1CCc2nc(NC3(CO)CCC3)sc2C1 [Example 218, (1-{[5-(4,6-difluoro-1H-indole-2-carbonyl)-4H,5H,6H,7H-[1,3]thiazolo[5,4-c]pyridin-2-yl]amino}cyclobutyl)methanol]
- pEC50 (HBV): > 6.00
- pIC50 (HBV core protein): 5.00 to 5.30

SMILES: CC(C)(C)OC(=O)N1CCC(O)(CNc2nc3c(s2)CN(C(=O)c2cc4ccccc4[nH]2)CC3)CC1 [Example 219, tert-butyl 4-hydroxy-4-({[5-(1H-indole-2-carbonyl)-4H,5H,6H,7H-[1,3]thiazolo[5,4-c]pyridin-2-yl]amino}methyl)piperidine-1-carboxylate]
- pEC50 (HBV): > 6.00
- pIC50 (HBV core protein): 5.00 to 5.30

SMILES: Nc1nc2c(s1)CN(C(=O)c1[nH]c3ccccc3c1F)CC2 [Example 220, 5-(3-fluoro-1H-indole-2-carbonyl)-4H,5H,6H,7H-[1,3]thiazolo[5,4-c]pyridin-2-amine]
- pEC50 (HBV): 5.00 to 6.00
- pIC50 (HBV core protein): > 4.00

SMILES: CC(C)(CO)CNc1nc2c(s1)CN(C(=O)c1cc3ccccc3[nH]1)CC2 [Example 221, 3-{[5-(1H-indole-2-carbonyl)-4H,5H,6H,7H-[1,3]thiazolo[5,4-c]pyridin-2-yl]amino}-2,2-dimethylpropan-1-ol]
- pEC50 (HBV): > 6.00
- pIC50 (HBV core protein): > 5.30

SMILES: O=C(c1cc2c(F)c(F)ccc2[nH]1)N1CCc2nc(NC3(CO)CCC3)sc2C1 [Example 222, (1-{[5-(4,5-difluoro-1H-indole-2-carbonyl)-4H,5H,6H,7H-[1,3]thiazolo[5,4-c]pyridin-2-yl]amino}cyclobutyl)methanol]
- pEC50 (HBV): > 6.00
- pIC50 (HBV core protein): > 5.30

SMILES: O=C(c1cc2c(Cl)cc(F)cc2[nH]1)N1CCc2nc(NC3(CO)CCC3)sc2C1 [Example 223, (1-{[5-(4-chloro-6-fluoro-1H-indole-2-carbonyl)-4H,5H,6H,7H-[1,3]thiazolo[5,4-c]pyridin-2-yl]amino}cyclobutyl)methanol]
- pEC50 (HBV): > 6.00
- pIC50 (HBV core protein): > 5.30

SMILES: O=C(c1cc2c(Cl)cccc2[nH]1)N1CCc2nc(NC3(CO)CCC3)sc2C1 [Example 224, (1-{[5-(4-chloro-1H-indole-2-carbonyl)-4H,5H,6H,7H-[1,3]thiazolo[5,4-c]pyridin-2-yl]amino}cyclobutyl)methanol]
- pEC50 (HBV): > 6.00
- pIC50 (HBV core protein): > 5.30

SMILES: O=C(c1cc2ccccc2[nH]1)N1CCc2nc(NCC(F)(F)CO)sc2C1 [Example 225, 2,2-difluoro-3-{[5-(1H-indole-2-carbonyl)-4H,5H,6H,7H-[1,3]thiazolo[5,4-c]pyridin-2-yl]amino}propan-1-ol]
- pEC50 (HBV): > 6.00
- pIC50 (HBV core protein): > 5.30

SMILES: O=C(c1cc2ccccc2[nH]1)N1CCc2nc(NCC(CO)CC3CCOCC3)sc2C1 (centres unmarked) [Example 226, 3-{[5-(1H-indole-2-carbonyl)-4H,5H,6H,7H-[1,3]thiazolo[5,4-c]pyridin-2-yl]amino}-2-[(oxan-4-yl)methyl]propan-1-ol]
- pEC50 (HBV): > 6.00
- pIC50 (HBV core protein): > 5.30

SMILES: O=C(c1cc2ccccc2[nH]1)N1CCc2nc(NCC(CO)CC3CCC3)sc2C1 (centres unmarked) [Example 227, 2-(cyclobutylmethyl)-3-{[5-(1H-indole-2-carbonyl)-4H,5H,6H,7H-[1,3]thiazolo[5,4-c]pyridin-2-yl]amino}propan-1-ol]
- pEC50 (HBV): > 6.00
- pIC50 (HBV core protein): > 4.00

SMILES: CC(C)[C@H](N)C(=O)OCC1(CNc2nc3c(s2)CN(C(=O)c2cc4c(Cl)cc(F)cc4[nH]2)CC3)CC1 [Example 229, [1-({[5-(4-chloro-6-fluoro-1H-indole-2-carbonyl)-4H,5H,6H,7H-[1,3]thiazolo[5,4-c]pyridin-2-yl]amino}methyl)cyclopropyl]methyl (2S)-2-amino-3-methylbutanoate]
- pEC50 (HBV): > 6.00
- pIC50 (HBV core protein): > 5.30

SMILES: O=C(c1cc2ccccc2[nH]1)N1CCc2nc(NC3(CO)CC3)sc2C1 [Example 230, (1-{[5-(1H-indole-2-carbonyl)-4H,5H,6H,7H-[1,3]thiazolo[5,4-c]pyridin-2-yl]amino}cyclopropyl)methanol]
- pEC50 (HBV): > 6.00
- pIC50 (HBV core protein): > 5.30

SMILES: COC1COCCC1Nc1nc2c(s1)CN(C(=O)c1cc3ccccc3[nH]1)CC2 (centres unmarked) [Example 231, 5-(1H-indole-2-carbonyl)-N-(3-methoxyoxan-4-yl)-4H,5H,6H,7H-[1,3]thiazolo[5,4-c]pyridin-2-amine]
- pEC50 (HBV): > 6.00
- pIC50 (HBV core protein): 5.00 to 5.30

SMILES: CC(=O)N1CCOCC1CNc1nc2c(s1)CN(C(=O)c1cc3ccccc3[nH]1)CC2 (centres unmarked) [Example 232, 1-[3-({[5-(1H-indole-2-carbonyl)-4H,5H,6H,7H-[1,3]thiazolo[5,4-c]pyridin-2-yl]amino}methyl)morpholin-4-yl]ethan-1-one]
- pEC50 (HBV): > 6.00
- pIC50 (HBV core protein): 5.00 to 5.30

SMILES: O=C(CNc1nc2c(s1)CN(C(=O)c1cc3ccccc3[nH]1)CC2)N1CCCCC1 [Example 233, 2-{[5-(1H-indole-2-carbonyl)-4H,5H,6H,7H-[1,3]thiazolo[5,4-c]pyridin-2-yl]amino}-1-(piperidin-1-yl)ethan-1-one]
- pEC50 (HBV): 5.00 to 6.00
- pIC50 (HBV core protein): > 4.00

SMILES: O=C(c1cc2cc(F)c(Cl)cc2[nH]1)N1CCc2nc(NCC3(CO)CC3)sc2C1 [Example 234, [1-({[5-(6-chloro-5-fluoro-1H-indole-2-carbonyl)-4H,5H,6H,7H-[1,3]thiazolo[5,4-c]pyridin-2-yl]amino}methyl)cyclopropyl]methanol]
- pEC50 (HBV): > 6.00
- pIC50 (HBV core protein): > 5.30

SMILES: CC(C)[C@H](N)C(=O)OCC1(CNc2nc3c(s2)CN(C(=O)c2cc4ccccc4[nH]2)CC3)CC1 [Example 235, [1-({[5-(1H-indole-2-carbonyl)-4H,5H,6H,7H-[1,3]thiazolo[5,4-c]pyridin-2-yl]amino}methyl)cyclopropyl]methyl (2S)-2-amino-3-methylbutanoate]
- pEC50 (HBV): > 6.00
- pIC50 (HBV core protein): > 5.30
